IC50 data for 14 compounds are collected here from ChEMBL document CHEMBL3301562, “MMV Box screening against Plasmodium falciparum protein kinases and aminoacyl tRNA synthetases”.

A value given as a limit tells only on which side of the number the result lay.

Format in all cases: functional
One assay has as its target Lysine--tRNA ligase (Plasmodium falciparum (isolate 3D7), UniProt Q8IDJ8). The experiment in a line: MMV: KRS recombinant Plasmodium falciparum Lysyl-tRNA-synthetase, assay with yeast tRNA, ATP, and lysine and 3 uM MMV malaria box compound, assay read out with kinase glo as % inhibition.
Assay [1] has as its target T1, Mitogen-activated protein kinase (Plasmodium falciparum, UniProt Q25917).
T1 sequence (Q25917 whole entry): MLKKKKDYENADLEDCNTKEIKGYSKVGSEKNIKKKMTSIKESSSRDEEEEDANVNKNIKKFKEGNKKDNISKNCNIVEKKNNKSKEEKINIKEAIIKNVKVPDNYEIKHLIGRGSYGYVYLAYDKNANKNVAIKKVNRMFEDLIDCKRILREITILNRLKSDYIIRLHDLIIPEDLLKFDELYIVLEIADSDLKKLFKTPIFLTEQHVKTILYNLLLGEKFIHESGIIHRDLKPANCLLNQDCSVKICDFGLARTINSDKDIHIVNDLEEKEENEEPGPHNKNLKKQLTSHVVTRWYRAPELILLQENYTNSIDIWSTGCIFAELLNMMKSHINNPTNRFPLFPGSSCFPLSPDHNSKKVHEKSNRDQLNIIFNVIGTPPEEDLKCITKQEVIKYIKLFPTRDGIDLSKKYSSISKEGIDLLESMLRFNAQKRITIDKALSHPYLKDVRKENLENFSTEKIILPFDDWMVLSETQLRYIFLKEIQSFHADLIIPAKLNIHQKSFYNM
The experiment in a line: Final concentrations were 1 uM ATP, 0.5 mM DTT, 1 mM MgCl2, 0.5 mg/mL BSA, and 10 ug/ml MAP2 in a buffer of 50 mM HEPES (pH 7.0). 0.5 mg/mL histone III-S served as the substrate (13); 100 uM AMP-PNP, an ATP analog, was used as a control inhibitor. Incubation time was 4 hours.

In assay [2] the target is Calcium-dependent protein kinase 1 (Plasmodium falciparum, UniProt P62344). The experiment in a line: MMV: CDPK1 Protein kinase inhibition assay using recombinant PfCDPK1, syntide 2 peptide substrate, ATP and KinaseGlo to measure % inhibition at 1 uM MMV box compound. (In general: Kinase-Glo reads ATP consumption through a luciferase reaction.)
Sequence of Calcium-dependent protein kinase 1 (P62344 whole entry): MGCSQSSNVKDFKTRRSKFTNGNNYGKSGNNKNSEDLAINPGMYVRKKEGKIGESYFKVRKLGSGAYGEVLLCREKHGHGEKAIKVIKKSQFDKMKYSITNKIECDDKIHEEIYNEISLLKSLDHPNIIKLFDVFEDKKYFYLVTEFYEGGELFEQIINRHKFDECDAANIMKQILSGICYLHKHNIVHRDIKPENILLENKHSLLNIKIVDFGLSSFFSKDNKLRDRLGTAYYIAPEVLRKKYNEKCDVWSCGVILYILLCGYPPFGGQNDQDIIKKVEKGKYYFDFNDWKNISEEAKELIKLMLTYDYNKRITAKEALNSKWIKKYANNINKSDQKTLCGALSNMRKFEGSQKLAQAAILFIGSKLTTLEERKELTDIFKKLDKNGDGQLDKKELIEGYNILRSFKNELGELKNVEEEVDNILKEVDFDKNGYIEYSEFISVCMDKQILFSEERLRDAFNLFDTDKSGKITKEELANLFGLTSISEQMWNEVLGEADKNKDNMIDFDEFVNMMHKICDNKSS
Assay [3] addresses T2, Cdk-related protein kinase 6 (Plasmodium falciparum, UniProt O77239).
T2 sequence (O77239 whole entry): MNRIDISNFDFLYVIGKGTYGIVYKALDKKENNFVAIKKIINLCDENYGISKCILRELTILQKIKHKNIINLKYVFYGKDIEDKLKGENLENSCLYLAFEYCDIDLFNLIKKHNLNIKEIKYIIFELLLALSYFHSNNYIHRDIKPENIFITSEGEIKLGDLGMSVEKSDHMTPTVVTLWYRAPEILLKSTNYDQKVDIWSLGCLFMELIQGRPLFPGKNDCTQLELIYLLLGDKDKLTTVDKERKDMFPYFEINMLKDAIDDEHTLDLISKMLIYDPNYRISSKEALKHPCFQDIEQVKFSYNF
The experiment in a line: Final concentrations were 1.5 uM ATP, 5 mM MnCl2, and 15 ug/ml PK6 in a buffer of 100 mM Tris-HCl (pH 7.5). 50 ug/mL MBP was provided as the substrate; 10 uM staurosporine was used as a control inhibitor. Incubation time was 3 hours and 40 minutes.The catalytic activity of each kinase was considered proportional to ATP consumed, as determined from measurements of residual [ATP] with the luciferase-based reagent Kinase-Glo (Promega) following incubation. Luminescence (proportional to residual [ATP]) was measured on the plate readers FLx800 (BioTek Instruments, Winooski, VT, USA) and MicroBeta2.

In the next assay the target is T3, Proline--tRNA ligase (Plasmodium falciparum (isolate 3D7), UniProt Q8I5R7).
T3 sequence (Q8I5R7 whole entry): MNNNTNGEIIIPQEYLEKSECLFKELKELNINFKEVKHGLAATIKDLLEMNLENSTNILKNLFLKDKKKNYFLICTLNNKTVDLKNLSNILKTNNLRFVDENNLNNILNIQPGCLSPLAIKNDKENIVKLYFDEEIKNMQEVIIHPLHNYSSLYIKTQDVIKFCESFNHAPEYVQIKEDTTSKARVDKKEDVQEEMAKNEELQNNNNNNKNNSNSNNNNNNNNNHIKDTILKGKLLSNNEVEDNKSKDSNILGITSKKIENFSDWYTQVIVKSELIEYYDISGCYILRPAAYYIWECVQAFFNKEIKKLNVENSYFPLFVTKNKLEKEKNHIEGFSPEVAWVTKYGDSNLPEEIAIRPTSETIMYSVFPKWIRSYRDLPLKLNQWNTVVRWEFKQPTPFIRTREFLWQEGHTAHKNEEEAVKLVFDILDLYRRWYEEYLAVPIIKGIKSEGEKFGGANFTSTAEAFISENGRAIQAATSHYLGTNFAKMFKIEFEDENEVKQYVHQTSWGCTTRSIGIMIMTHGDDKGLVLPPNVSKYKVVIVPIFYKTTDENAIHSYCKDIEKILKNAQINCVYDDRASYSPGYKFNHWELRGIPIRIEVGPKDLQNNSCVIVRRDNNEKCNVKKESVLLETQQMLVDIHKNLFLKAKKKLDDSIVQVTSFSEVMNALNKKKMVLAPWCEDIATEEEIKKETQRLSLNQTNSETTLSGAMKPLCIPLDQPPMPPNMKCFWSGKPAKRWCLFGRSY
The experiment in a line: MMV: ProRS recombinant Plasmodium falciparum Prolyl-tRNA-synthetase, assay with yeast tRNA, ATP, and proline and 3 uM MMV malaria box compound, assay read out with kinase glo as % inhibition.

The target in assay [4] is T4, Putative uncharacterized protein pk7 (Plasmodium falciparum, UniProt O96214).
T4 sequence (O96214 whole entry): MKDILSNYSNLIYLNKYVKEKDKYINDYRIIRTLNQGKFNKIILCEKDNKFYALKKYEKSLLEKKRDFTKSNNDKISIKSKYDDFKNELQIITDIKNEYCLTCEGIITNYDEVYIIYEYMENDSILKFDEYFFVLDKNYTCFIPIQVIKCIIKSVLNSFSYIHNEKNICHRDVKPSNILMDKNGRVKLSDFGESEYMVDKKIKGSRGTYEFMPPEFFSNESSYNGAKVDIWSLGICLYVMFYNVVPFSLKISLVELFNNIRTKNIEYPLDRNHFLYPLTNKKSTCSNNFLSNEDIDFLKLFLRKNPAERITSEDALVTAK
The experiment in a line: Final concentrations were 1 uM ATP, 2 mM DTT, 20 mM MgCl2, 2 mM MnCl2, 0.01% BSA, and 6 ug/ml PK7, in a buffer of 20 mM Tris-HCl (pH 7.5). The enzyme itself was the only substrate present (since autophosphorylation occurs); 100 uM 1NA-PP1 was used as a control inhibitor. Incubation time was 3 hours.

For assay [5], the target named is T5, Calcium-dependent protein kinase 4 (Plasmodium falciparum (isolate 3D7), UniProt Q8IBS5).
T5 sequence (Q8IBS5 whole entry): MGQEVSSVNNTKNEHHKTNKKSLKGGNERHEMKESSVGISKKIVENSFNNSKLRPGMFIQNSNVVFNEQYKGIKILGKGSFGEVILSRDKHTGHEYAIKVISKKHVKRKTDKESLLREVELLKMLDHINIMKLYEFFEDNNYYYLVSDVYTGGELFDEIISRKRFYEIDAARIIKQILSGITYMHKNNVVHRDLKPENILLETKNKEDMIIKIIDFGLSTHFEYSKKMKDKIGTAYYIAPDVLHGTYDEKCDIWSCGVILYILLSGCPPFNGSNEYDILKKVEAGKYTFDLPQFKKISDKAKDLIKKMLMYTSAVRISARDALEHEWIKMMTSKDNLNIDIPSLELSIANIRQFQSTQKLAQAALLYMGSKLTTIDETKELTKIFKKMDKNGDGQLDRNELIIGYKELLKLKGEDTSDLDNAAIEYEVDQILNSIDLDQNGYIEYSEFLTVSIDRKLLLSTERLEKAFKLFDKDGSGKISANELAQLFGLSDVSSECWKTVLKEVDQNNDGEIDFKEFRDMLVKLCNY
The experiment in a line: MMV: CDPK4 Protein kinase inhibition assay using recombinant PfCDPK4, syntide2 peptide substrate, ATP and KinaseGlo to measure % inhibition at 1 uM MMV box compound.

Sequence of Lysine--tRNA ligase (Q8IDJ8 whole entry): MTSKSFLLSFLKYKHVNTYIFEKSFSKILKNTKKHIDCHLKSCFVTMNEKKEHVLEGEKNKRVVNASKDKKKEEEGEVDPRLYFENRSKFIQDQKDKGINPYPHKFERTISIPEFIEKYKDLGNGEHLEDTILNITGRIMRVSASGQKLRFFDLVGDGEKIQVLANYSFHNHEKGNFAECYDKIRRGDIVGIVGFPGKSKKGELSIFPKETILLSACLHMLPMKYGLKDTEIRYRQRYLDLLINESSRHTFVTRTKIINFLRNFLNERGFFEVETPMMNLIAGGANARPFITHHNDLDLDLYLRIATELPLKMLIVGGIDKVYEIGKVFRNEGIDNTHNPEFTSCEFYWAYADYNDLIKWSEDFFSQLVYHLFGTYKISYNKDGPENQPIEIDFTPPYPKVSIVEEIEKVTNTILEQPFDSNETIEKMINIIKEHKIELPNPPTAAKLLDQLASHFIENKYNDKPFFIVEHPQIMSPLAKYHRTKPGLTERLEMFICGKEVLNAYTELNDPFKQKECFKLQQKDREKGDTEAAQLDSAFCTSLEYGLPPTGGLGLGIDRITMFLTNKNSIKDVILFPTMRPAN

For `COc1ccc(C2c3ccc4ccccc4c3Oc3ncn(CCCN(C)C)c(=N)c32)cc1` (stereo not drawn), the IC50 at Lysine--tRNA ligase is above 2.5 µM; in assay [1], above 1 µM; in assay [2] it was above 1 µM; in assay [3], above 1 µM; at Proline--tRNA ligase, above 2.5 µM; in assay [4], above 1 µM. In addition, in assay [5], the IC50 was above 1 µM.

As for `COc1ccc(/C=C2/SC(=Nc3ccccc3)NC2=O)cc1`, the IC50 at Lysine--tRNA ligase is above 2.5 µM; in assay [1], above 1 µM; in assay [2], above 1 µM; in assay [3] it was above 1 µM; on Proline--tRNA ligase, above 2.5 µM; in assay [4], above 1 µM. Further, the half-maximal inhibitory concentration (IC50) in assay [5] was above 1 µM.

For the compound `N#Cc1nc(Cc2cccc3ccccc23)oc1N1CCN(C(c2ccccc2)c2ccccc2)CC1`, the IC50 at Lysine--tRNA ligase is above 2.5 µM; in assay [1] it was above 1 µM; in assay [2] it was above 1 µM; in assay [3], above 1 µM; at Proline--tRNA ligase it was above 2.5 µM; in assay [4], above 1 µM. Further, the IC50 in assay [5] is above 1 µM.

For `Cc1ccc(C(=O)c2oc3ccc4c(C)cc(=O)oc4c3c2C)cc1`, the IC50 is above 2.5 µM on Lysine--tRNA ligase; above 1 µM in assay [1]; above 1 µM in assay [2]; above 1 µM in assay [3]; above 2.5 µM at Proline--tRNA ligase; above 1 µM in assay [4]. Moreover, in assay [5], the IC50 is above 1 µM.

Consider `CCCCCCc1cc2cc(-c3csc(C=Cc4ccccc4)n3)c(=O)oc2cc1O`, for which the IC50 on Lysine--tRNA ligase was above 2.5 µM; in assay [1] it was above 1 µM; in assay [2], above 1 µM; in assay [3], above 1 µM; on Proline--tRNA ligase, above 2.5 µM; in assay [4], above 1 µM. In assay [5], the 50% inhibitory concentration (IC50) is above 1 µM.

Consider `COc1ccc(CNC(=O)c2cc3c(=O)n4ccccc4nc3n(CCc3ccccc3)c2=N)cc1`, for which the IC50 on Lysine--tRNA ligase is above 2.5 µM; in assay [1] it was above 1 µM; in assay [2], above 1 µM; in assay [3], above 1 µM; on Proline--tRNA ligase it was above 2.5 µM; in assay [4], above 1 µM. Also, the IC50 in assay [5] was above 1 µM.

In the case of `Cn1c(=O)n(C)c2cc(CNCCNc3ccnc4cc(Cl)ccc34)ccc21`, the IC50 on Lysine--tRNA ligase is above 2.5 µM; in assay [1], above 1 µM; in assay [2] it was above 1 µM; in assay [3], above 1 µM; at Proline--tRNA ligase, above 2.5 µM; in assay [4] it was above 1 µM. The IC50 in assay [5] was above 1 µM.

In the case of `CCOc1ccc2nc(C)cc(Nc3ccc(N(C)C)cc3)c2c1`, the IC50 is above 2.5 µM at Lysine--tRNA ligase; above 1 µM in assay [1]; above 1 µM in assay [2]; above 1 µM in assay [3]; above 2.5 µM on Proline--tRNA ligase; above 1 µM in assay [4]. In assay [5], the IC50 was above 1 µM.

For the compound `COc1ccc(C=C2SC(Nc3ccc(F)cc3)=NC2=O)c(OC)c1`, the IC50 at Lysine--tRNA ligase is above 2.5 µM; in assay [1] it was above 1 µM; in assay [2] it was above 1 µM; in assay [3] it was above 1 µM; at Proline--tRNA ligase, above 2.5 µM; in assay [4], above 1 µM. In addition, in assay [5], the IC50 is above 1 µM.

For the compound `COc1ccccc1C(=O)ON=C(N)Cc1cccc2ccccc12`, the IC50 on Lysine--tRNA ligase is above 2.5 µM; in assay [1] it was above 1 µM; in assay [2], above 1 µM; in assay [3], above 1 µM; at Proline--tRNA ligase it was above 2.5 µM; in assay [4], above 1 µM. Further, in assay [5], the IC50 is above 1 µM.

For the compound `c1ccc(CNc2nc(Nc3ccccc3)nc3ccccc23)cc1`, the IC50 is above 2.5 µM on Lysine--tRNA ligase; above 1 µM in assay [1]; above 1 µM in assay [2]; above 1 µM in assay [3]; above 2.5 µM on Proline--tRNA ligase; above 1 µM in assay [4]. The half-maximal inhibitory concentration (IC50) in assay [5] is above 1 µM.

For the compound `CCOc1ccc2nc(C)cc(Nc3ccc(Br)cc3)c2c1`, the half-maximal inhibitory concentration (IC50) on Lysine--tRNA ligase was above 2.5 µM; in assay [1], above 1 µM; in assay [2], above 1 µM; in assay [3], above 1 µM; on Proline--tRNA ligase, above 2.5 µM; in assay [4], above 1 µM. Besides, the IC50 in assay [5] was above 1 µM.

For the compound `COc1ccc2sc(N(Cc3cccnc3)C(=O)c3ccc(C#N)cc3)nc2c1`, the IC50 on Lysine--tRNA ligase was above 2.5 µM; in assay [1] it was above 1 µM; in assay [2], above 1 µM; in assay [3], above 1 µM; on Proline--tRNA ligase, above 2.5 µM; in assay [4] it was above 1 µM. The IC50 in assay [5] is above 1 µM.

Regarding `CCOC(=O)C1=CN(C)C=C(C(=O)OCC)C1c1cc(Br)c(OCC)c(OC)c1`, the IC50 was above 2.5 µM at Lysine--tRNA ligase; above 1 µM in assay [1]; above 1 µM in assay [2]; above 1 µM in assay [3]; above 2.5 µM on Proline--tRNA ligase; above 1 µM in assay [4]. Further, the IC50 in assay [5] was above 1 µM.

What is called IC50 is the concentration that inhibits the measured activity by half.
